Data as given in patent US11279726B2, “Norbornene-based amphipathic compound and utilization thereof” (Industry-University Cooperation Foundation Hanyang …, priority 2017, dated 2022).

Columns and labels:
[1] = Hydrodynamic radius / size distribution of micelles by dynamic light scattering (DLS); assay type: physicochemical; settings: for Rh (nm), hydrodynamic radius of micelles: 1.0 wt % agent; for Micelle size change with temperature: temperature-dependent (FIGS. 7a, 7b)
Protocol: A method for measuring the radius of a micelle is not particularly limited, and a method well known in the art may be used, and for example, the radius thereof may be measured using a dynamic light scattering (DLS) experiment.
(§1) To identify the characteristics of NBMs synthesized in Preparation Example 1 to 6 according to the synthetic method of Example 1, molecular weights (MWs) of NBMs, critical micelle concentrations (CMCs) and hydrodynamic radii (Rh) of the micelles were measured.
(§2) Specifically, the critical micelle concentrations (CMCs) were measured by fluorescent staining with diphenylhexatriene (DPH), and the hydrodynamic radii (Rh) of the micelle formed with individual agents (1.0 wt %) were measured by dynamic light scattering (DLS).

[2] = biological target: T1, uric acid-xanthine/H+ symporter (UapA) (Emericella nidulans, UniProt Q07307, G411V); assay: UapA extraction and thermal stability by fluorescence size exclusion chromatography (FSEC); set-up: species or system Aspergillus nidulans; settings: 1.0 wt % amphiphile; for Retention of monodispersed UapA-GFP peak after heating (FSEC): 10 minutes at 40° C., compared with DDM
T1 construct: made in house; host or cells: Saccharomyces cerevisiae FGY217
Protocol: An experiment for measuring the structural stability of uric acid-xanthine/H+ symporter (UapA) isolated from Aspergillus nidulans using NBMs was performed. The structural stability of UapA was evaluated using […].
Specifically, UapAG411VΔ1-11 (hereinafter, referred to as “UapA”) was expressed as GFP fusion in Saccharomyces cerevisiae FGY217 strain and isolated in a sample buffer (20 mM Tris (pH 7.5), 150 mM NaCl, 0.03% DDM, 0.6 mM xanthine) according to the method described in the literature written by J. Leung et al. (Mol. Membr. Biol. 2013, 30, 32-42). Membranes containing UapA were resuspended in PBS, 10 mM imidazole pH 8.0, 150 mM NaCl, 10% glycerol, and the protein concentration was measured. The membranes were adjusted to a concentration of 1 mg·ml^−1 and 1 ml aliquots were individually incubated with DDM or NBMs at a final amphiphilic material concentration of 1.0 wt % for 10 minutes at 40° C. 100 μl aliquots were removed from each tube, and a fluorescence reading was taken for each sample before and after ultracentrifugation at 150,000 g for 10 minutes to remove insoluble material. The remaining soluble fraction for each condition was submitted to fluorescent size exclusion chromatography (FSEC) using a Superose 6 column (GE Healthcare) equilibrated with DDM.

[3] = system: leucine transporter (LeuT); assay: LeuT stability: [3H]-Leu substrate binding by scintillation proximity assay (SPA); set-up: species or system Aquifex aeolicus; settings: t=12 day, CMC+0.04 wt %, room temperature
Protocol: An experiment for measuring the stability of LeuT protein with NBMs was performed. Concentrations of individual amphiphilic compounds were (a) CMC+0.04 wt % and (b) CMC+0.2 wt %, and the stability of the LeuT protein was evaluated by measuring a LeuT substrate binding activity using [3H]-Leu via scintillation proximity assay (SPA). The measurement was performed at regular intervals during 12-day incubation at room temperature. Specifically, a wild-type leucine transporter (LeuT) derived from thermophilic bacteria Aquifex aeolicus was purified by the method described previously (G. Deckert et al., Nature 1998, 392, 353-358). LeuT was expressed in E. coli C41 (DE3) transformed with pET16b encoding C-terminally 8× His-tagged transporter (the expression plasmid was provided by Dr E. Gouaux, Vollum Institute, Portland, Oreg., USA). […] Protein samples were stored for 12 days at room temperature, and centrifuged at predetermined points of time, the substrate ([3H]-leucine)-binding activity of the transporter was determined via SPA by taking advantage of protein properties. […] Total [3H]-leucine binding for the respective samples was measured using a MicroBeta liquid scintillation counter (Perkin Elmer).

[4] = Critical micelle concentration by fluorescent staining with diphenylhexatriene (DPH); assay type: physicochemical; settings: aqueous solution
Protocol: A method for measuring CMC is not particularly limited, and a method widely known in the art may be used, for example, by fluorescence staining with diphenylhexatriene (DPH).
as §1, §2

T1 sequence (Q07307 12-574 G411V): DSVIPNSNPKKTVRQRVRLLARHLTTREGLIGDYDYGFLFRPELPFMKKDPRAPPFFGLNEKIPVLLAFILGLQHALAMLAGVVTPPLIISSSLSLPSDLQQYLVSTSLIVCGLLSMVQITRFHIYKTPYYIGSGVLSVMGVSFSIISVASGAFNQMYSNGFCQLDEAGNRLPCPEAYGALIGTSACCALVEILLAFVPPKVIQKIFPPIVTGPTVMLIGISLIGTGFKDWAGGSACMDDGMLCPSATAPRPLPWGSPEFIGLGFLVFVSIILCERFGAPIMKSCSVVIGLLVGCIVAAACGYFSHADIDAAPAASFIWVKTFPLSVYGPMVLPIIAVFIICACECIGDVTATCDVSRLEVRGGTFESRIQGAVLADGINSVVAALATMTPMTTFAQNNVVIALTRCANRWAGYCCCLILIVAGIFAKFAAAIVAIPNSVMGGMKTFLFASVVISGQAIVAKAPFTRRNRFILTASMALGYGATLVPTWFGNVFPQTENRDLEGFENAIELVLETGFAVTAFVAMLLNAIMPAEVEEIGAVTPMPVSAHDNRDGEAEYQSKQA

Structure (SMILES)	Rh (nm), hydrodynamic radius of micelles [1]	Micelle size change with temperature [1]	UapA extraction efficiency from the cell membrane [2]	Retention of monodispersed UapA-GFP peak after heating (FSEC) [2]	LeuT substrate binding activity at the end of incubation [3]	CMC [4]	CMC (wt %) [4]
CCCCCCCCCCCOCC1C2CC([C@H]1COCCCCCCCCCCC)[C@H](O[C@@H]1OC(CO)[C@@H](O[C@H]3OC(CO)[C@@H](O)C(O)C3O)C(O)C1O)C2O[C@@H]1OC(CO)[C@@H](O[C@H]2OC(CO)[C@@H](O)C(O)C2O)C(O)C1O (stereo partly shown) [X-NBM-C11]	17.3 ± 0.10 nm	changed according to a temperature	almost quantitatively extract	substantially better than DDM	a little less than the initial activity of LeuT solubilized in DDM	~0.006 mM	~0.0007 wt %
CCCCCCCCCCCOCC1C2CC([C@@H]1COCCCCCCCCCCC)[C@H](O[C@@H]1OC(CO)[C@@H](O[C@H]3OC(CO)[C@@H](O)C(O)C3O)C(O)C1O)C2O[C@@H]1OC(CO)[C@@H](O[C@H]2OC(CO)[C@@H](O)C(O)C2O)C(O)C1O (stereo partly drawn) [D-NBM-C11]	3.7 ± 0.05 nm	not influenced by a temperature change	–	a little better than DDM	a little less than the initial activity of LeuT solubilized in DDM	~0.007 mM	~0.0008 wt %
